Values joined by “and” are separate entries in the source; they are usually repeats but may differ in a detail not shown here. Identical values can stand only once. Like-named read-outs stand apart in the source and are kept apart here.
Key:
[1] = system: tyrosine aminotransferase (TAT); test: tyrosine aminotransferase (TAT) induction in HTC cells; type: cell-based, rat; settings: for Emax: from 10^-6 M down, relative to dexamethasone = 1, read-out: Efficacy (DEX = 1) TAT
Experimental: In this example, tyrosine aminotransferase (TAT) activity was determined by a spectrophotometric assay. This enzyme catalyzes the conversion of tyrosine to p-hydroxyphenylpyruvate. This example is a standard in vitro test for glucocorticoid activity.
Addition of base caused the conversion of p-hydroxyphenylpyruvate to p-hydroxybenzaldehyde, which was quantitatively measured by absorbance at 331 nm. HTC cells, the target cells for the compound tested were grown in DMEM+10% FCS. Subconfluent cell cultures were incubated with test compounds in 6 well Costar dishes for 24 or 48 hours. The cells were incubated in either serum-free DMEM or DMEM containing 10% FCS previously filtered over activated charcoal. The cells were harvested in PBS using a rubber policeman, then washed once in PBS by centrifugation and resuspended in a 0.3 ml lysis buffer of 10 mM Tris, 10 mM EDTA and 0.25M sucrose at pH 7.4. The cells were then lysed by three cycles of freeze-thawing using dry ice and a 37° C. waterbath and the cells debris was pelleted by centrifugation for 2 min at 12,000 9 in an Eppendorf centrifuge.
The supernatant was used for a protein determination using either E+K stain or BioRad protein assay kit and TAT activity. 0.1 ml TAT buffer having 50 mM KH2 PO4, 1 mM EDTA, 0.1 mM Dithiothereitol (DTT), and 5 mg/ml BSA at pH 7.6 and 0.1 ml cell extract were mixed in glass tubes. A prewarmed mixture of 200 parts of a 2.3 mg/ml tyrosine solution in 0.05M phosphate buffer, 100 parts 0.125M KH2 PO4, 10 parts of a 0.92 mg/ml and ketoglutarate solution and 1 part of a 0.04 mg/ml pyridoxalphosphate solution had been previously made up. […] of the prewarmed mixture was added to each tube and allowed to react at 37° C. for 15 min. The addition of 0.1 ml 7N […] stopped the reaction. The mixture was then immediately vortexed.
Aldehyde formation was allowed to proceed at 37° C. for 30 min. The amound of aldehyde formed was determined by UV spectroscopic means. Absorbance was read at 331 nm using a solution composed of 0.1 ml TAT buffer, 0.1 ml lysis buffer, 0.7 ml reaction mixture and 0.1 ml 7N KOH as a blank. Optical Density values are linearily corrected for protein content.
As the absolute amount of enzyme induction varies between experiments, results are expressed as percent of the maximal induction obtained with dexamethasone, which was run as a standard in each assay.
In this series, compounds were assayed from 10^-6 M down. Results are expressed in the TAT column of tables 1, and 2 as the induction ability of a compound as compared to dexamethasone; a compound may either be a partial inducer or a superinducer.

[2] = system: alkaline phosphatase (APb); test: alkaline phosphatase (APb) induction in LE II cells; type: cell-based, mouse; settings: for Emax: Mus musculus, Table 1, about 65 hours, relative to dexamethasone = 1, read-out: Efficacy (DEX = 1) Alk P
Experimental: This is another standard test for glucocorticoid activity.
LE II cells were grown in DMEM plus 10% FCS, at 37° C., in a 10% carbon dioxide atmosphere. Confluent monolayers of cells were trypsinized and seeded at a 1:15 dilution into 6-well Costar cluster dishes. […] In all experiments, DEX, at concentrations of 10^-9 to 10^-6 M, was added to some of the wells as a positive control.
Cell monolayers were washed with PBS and harvested by scraping with a rubber policeman into 400 μl of a buffer of 20 mM Tris-HCl at pH 7.4; 2 mM MgCl2; and 150 mM NaCl together with 1% Triton X-100. Samples were transferred into 1.5 ml Eppendorf centrifuge tubes and placed on ice. The tubes were first vortexed and then centrifuged in the Eppendorf minicentrifuge for 2 minutes. Duplicate 100 μl aliquots of supernatant were placed into 12×75 mm glass test tubes for determination of APb activity, while the rest was saved for protein determination. […] The tubes were incubated in a 37° C. water bath for between 20 to 50 minutes, depending on the activity of the samples. The APb reaction was terminated by the addition of 0.5 ml of […]. The tubes were mixed and 200 μl portions from each tube were transferred in triplicate to a 96 well microtiter plate. The OD410 nm of each well was then determined using a Dynatech plate reader.
[…] of the cell supernatant were transferred to 96 well microtiter plates for protein determination by a modification of the Lowry method. […] The plates were shaken for 1 hour and then the OD630 was determined using a Dynatech plate reader. The protein content for each sample was calculated by comparing the average OD630 reading with those obtained for a bovine serum albumin standard curve.
The alkaline phosphatase activity of in each sample was expressed as μmoles product formed per minute per mg protein in the Alk P column of Tables 1 and 2. Results are expressed as the induction ability of a compound as compared to dexamethasone.

[3] = system: Hamster Melanoma RPM1 1846 tumor cells; test: hamster cheek pouch (HCP) angiogenesis inhibition, 1846 tumor cell stimulus; type: in vivo, Male Syrian Golden hamsters; settings: 3×10^5 tumor cells; for % Inhibition HCP Stimulus 1846: Table 1, between 0.5 and 4 mg/kg s.c. daily, each number independent result, average of six animals; for HCP % Inhibition Stimulus 1846: Table 2, compounds given daily at 0.4 mg/kg
Experimental: (§1) Each compound of the series was also tested for anti-angiogenic activity by an in vivo test that measured vascularization in a hamster's cheek pouch in response to either an angiogenic polypeptide growth factor, epidermal growth factor (EGF) or an induced […].
(§2) In this example, the in vivo angiogenesis inhibition activity of etianic acid esters was tested. Male Syrian Golden hamsters, weighing between 120 g and 150 g were anaesthetized by intraperitoneal (I.P.) injection of a rodent anaesthetic mixture consisting of 50 mg/kg ketamine hydrochloride, 5 mg/kg xylazine and 1 mg/kg acepromazine. The left cheek pouch of each animal was everted with a pincet and pinned down to a plexiglass-rubber stage and observed through a Zeiss stereomicroscope. 10 μg of EGF or 3×10^5 Hamster Melanoma RPM1 1846 tumor cells in 10 μl Cibachrome Blue agarose (Amicon) were injected subcutaneously in the left lower quadrant of the pouch with a Hamilton syringe.
(§3) The pouch was then reinserted and animals were kept under observation until recovered from anaesthesia.
(§4) The animals were dosed daily with one test compound, starting one day before stimulus injection and continuing until observation. The test compounds were dissolved in a minimum volume of ethanol and diluted in sterile phosphate buffer solution. […]
(§5) Either five days or twelve days after the EGF or tumor cell injection, animals were anaesthetized by I.P. injection of the rodent anaesthetic mixture. The pouch was everted on the stage and examined under the stereomicroscope. Pictures were taken with a 35 mm using Kodak Tungsten 50 professional films.
(§6) The following subjective scoring was used for evaluating the photographs:
(§7) 1: minimal branching of vessels in the vicinity of injection site.
(§8) 2: new vessels reach injection site, area involved is minimal (<50% of area surrounding injection site).
(§9) 3: many vessels reach and cross injection site, new vessels are tortuous, (>50% of area surrounding injection site).
(§10) 4: "full blown", many tortuous vessels, leakages, hemorrhages, 100% of area around injection site, invasion of new vessels into non-injected areas.
(§11) In the case of the tumor, tumor size was also determined. (See Table 4)
(§12) Results are expressed as the mean of the score. The results are shown in Tables 1 and 2 are percent inhibition of HCP Stimulus.

[4] = system: Hamster Melanoma RPM1 1846 tumor cells; test: Inhibition of tumor growth (2 week assay); type: in vivo, Male Syrian Golden hamsters; settings: Table 3, dose 0.8 mg/kg; for Angiogenesis score: mean of score 0 (no new vessels) to 4 (full blown), untreated 3.1 [A], 2.9 [B]; for Tumor area Mn (mm^2): untreated 40.7 ± 16.2 [A], 27.5 ± 15.3 [B]
Experimental: as §2, §3
The animals were dosed daily with one test compound, starting one day before stimulus injection and continuing until observation. The test compounds were dissolved in a minimum volume of ethanol and diluted in sterile phosphate buffer solution. Then between 0.5 and 4 mg/kg of the test compound was injected subcutaneously.
as §5, §6, §7, §8, §9, §10, §11, §12

[5] = system: Epidermal Growth Factor; test: hamster cheek pouch (HCP) angiogenesis inhibition, EGF stimulus; type: in vivo, Male Syrian Golden hamsters; settings: 10 μg EGF; for % Inhibition HCP Stimulus Epidermal Growth Factor: Table 1, between 0.5 and 4 mg/kg s.c. daily, each number independent result, average of six animals; for HCP % Inhibition Stimulus EGF: Table 2, compounds given daily at 0.4 mg/kg
Experimental: as §1, §2, §3, §4, §5, §6, §7, §8, §9, §10, §12

[6] = Rattus norvegicus, Table 1, 24 or 48 hours
[7] = Rattus norvegicus, Table 2, 24 or 48 hours

SMILES: C[C@@H]1C[C@H]2[C@@H]3CCC4=CC(=O)C=C[C@]4(C)[C@@]3(F)[C@@H](O)C[C@]2(C)[C@@]1(O)C(=O)CO [Dexamethasone, dexamethasone, reference compound]
- concentration inducing maximal TAT activity [1]: 10^-7 M
- EC50 ([1]; Rattus norvegicus): ~0.02 µM
- incubation time to maximum induction of alkaline phosphatase activity ([2]; preliminary experiments): 48 to 72 h

SMILES: CCC(=O)O[C@]1(C(=O)OC)[C@@H](C)C[C@H]2[C@@H]3CC(F)C4=CC(=O)C=C[C@]4(C)[C@@]3(F)[C@@H](O)C[C@@]21C (stereo partly shown) [compound 2]
- Emax [1, 6]: 80%
- % Inhibition HCP Stimulus 1846 [3]: 33% and 35%
- Angiogenesis % Inh. [4]: 35%
- Tumor area % (inhibition of tumor growth) [4]: 58%
- Angiogenesis score [4]: 1.9
- Tumor area Mn (mm^2) [4]: 11.6 ± 10.3 mm^2
- % Inhibition HCP Stimulus Epidermal Growth Factor [5]: 100%
- Emax [2]: 90%

SMILES: COC(=O)[C@@]1(OC=O)[C@H](C)C[C@H]2[C@@H]3CC(F)C4=CC(=O)C=C[C@]4(C)[C@@]3(F)[C@@H](O)C[C@@]21C (stereo partly shown) [compound 5]
- % Inhibition HCP Stimulus Epidermal Growth Factor [5]: -25%

SMILES: COC(=O)[C@@]1(OC(C)=O)[C@H](C)C[C@H]2[C@@H]3CC(F)C4=CC(=O)C=C[C@]4(C)[C@@]3(F)[C@@H](O)C[C@@]21C (stereo partly shown) [compound 6]
- Emax [1, 6]: 70%
- % Inhibition HCP Stimulus Epidermal Growth Factor [5]: 23%

SMILES: CCCCC(=O)O[C@]1(C(=O)OC)[C@H](C)C[C@H]2[C@@H]3CC(F)C4=CC(=O)C=C[C@]4(C)[C@@]3(F)[C@@H](O)C[C@@]21C (stereo partly shown) [compound 10]
- Emax [1, 6]: 90%
- % Inhibition HCP Stimulus 1846 [3]: 24%
- Angiogenesis % Inh. [4]: 23%
- Tumor area % (inhibition of tumor growth) [4]: 45%
- Angiogenesis score [4]: 2.4
- Tumor area Mn (mm^2) [4]: 22.5 ± 13.7 mm^2
- % Inhibition HCP Stimulus Epidermal Growth Factor [5]: 100%
- Emax [2]: 70%

SMILES: CCC(=O)O[C@]1(C(=O)SC)[C@@H](C)C[C@H]2[C@@H]3CC(F)C4=CC(=O)C=C[C@]4(C)[C@@]3(F)C(O)C[C@@]21C (stereo partly shown) [compound 11]
- Emax [1, 7]: 140%
- HCP % Inhibition Stimulus 1846 [3]: 28%
- HCP % Inhibition Stimulus EGF [5]: 100%

SMILES: CCCC(=O)O[C@]1(C(=O)SC)[C@@H](C)C[C@H]2[C@@H]3CCC4=CC(=O)C=C[C@]4(C)[C@@]3(F)C(O)C[C@@]21C (stereo partly shown) [compound 12]
- Emax [1, 7]: 130%
- HCP % Inhibition Stimulus EGF [5]: 37%

SMILES: CCCC(=O)O[C@]1(C(=O)SC)[C@@H](C)C[C@H]2[C@@H]3CC(F)C4=CC(=O)C=C[C@]4(C)[C@@]3(F)[C@@H](O)C[C@@]21C (stereo partly shown) [compound 13]
- Emax [1, 7]: 90%
- HCP % Inhibition Stimulus 1846 ([3]; 0.4 mg/kg): 40% and 53% and 45%
- Angiogenesis % Inh. [4]: 42%
- Tumor area % (inhibition of tumor growth) [4]: 78%
- Angiogenesis score [4]: 1.8
- Tumor area Mn (mm^2) [4]: 9.1 ± 3 mm^2
- HCP % Inhibition Stimulus EGF ([5]; 0.4 mg/kg): 94% and 84%

SMILES: CCCCC(=O)O[C@]1(C(=O)SC)[C@@H](C)C[C@H]2[C@@H]3CC(F)C4=CC(=O)C=C[C@]4(C)[C@@]3(F)C(O)C[C@@]21C (stereo partly shown) [compound 14]
- Emax [1, 7]: 60%
- HCP % Inhibition Stimulus 1846 [3]: 16%
- HCP % Inhibition Stimulus EGF ([5]; 0.4 mg/kg): 22% and 42%

SMILES: CCC(=O)O[C@]1(C(=O)SC)[C@H](C)C[C@H]2[C@@H]3CCC4=CC(=O)C=C[C@]4(C)[C@@]3(F)C(O)C[C@@]21C (stereo partly shown) [compound 15]
- HCP % Inhibition Stimulus EGF [5]: 30%

SMILES: CCC(=O)O[C@]1(C(=O)SC)[C@H](C)C[C@H]2[C@@H]3CC(F)C4=CC(=O)C=C[C@]4(C)[C@@]3(F)C(O)C[C@@]21C (stereo partly shown) [compound 16]
- Emax [1, 7]: 120%
- HCP % Inhibition Stimulus 1846 ([3]; 0.4 mg/kg): 25% and 35%
- HCP % Inhibition Stimulus EGF [5]: 46%

SMILES: CCCC(=O)O[C@]1(C(=O)SC)[C@H](C)C[C@H]2[C@@H]3CC(F)C4=CC(=O)C=C[C@]4(C)[C@@]3(F)C(O)C[C@@]21C (stereo partly shown) [compound 18]
- Emax [1, 7]: 130%
- HCP % Inhibition Stimulus 1846 [3]: 16%

— US4599331A, “Etianic acids as antiangiogenics” (Syntex (U.S.A.) Inc., priority 1984, dated 1986)
